System: frog (Rana catesbeiana) skin
Test: frog skin bioassay (skin darkening measured by reflectance)
Type: cell-based
Settings: for time to reversal of the maximum response after removal of the agonist: 10^−8 M peptide, removal followed by several Ringer's solution washings, FIG. 5; for agonist character and potency compared to native α-MSH (dose-response curves): frog skin pigmentation, decrease in skin reflectance, FIG. 4
Procedure: The biological activity assay of the EPM-2 was carried out comparatively to the native α-MSH. The classical method of measuring by reflectance the alteration in the frog skin pigmentation was assayed, see, Gen. Comp. Endocrinol. 55, 104 (1984). The potency of the synthesized hormone was determined through a dose-effect curve and long lasting activities were measured until a maximum of 3 h after the peptide removal from the incubation system carried out with successive washes. Briefly, the skin of the thigh and the dorsal portion of a frog were removed and cut in pieces of 2×2 cm which were placed among two rings of PVC and maintained for 1 h in Ringer's solution. After this period, the melanin granules aggregate in the melanocytes, and the skin becomes clearer. When α-MSH or its spin labeled analogue is added to the medium, there is a dispersion of the pigments in the cell, resulting in skin darkening. The change in the coloration is therefore monitored (decrease in the skin reflectance) in a photovolt reflectometer. The result is expressed as percentage in relation to the initial value.

Substance | time to reversal of the maximum response after removal of the agonist [min] | agonist character and potency compared to native α-MSH (dose-response curves) | agonist character and potency compared to native α-MSH (dose-response curves) (listed as labeled analogue) | natural biological activity maintained (relative to native α-MSH) [%]
Acetyl-Ser-Tyr-Ser-Met-Glu-His-Phe-Arg-Trp-Gly-Lys-Pro-Val-CONH2 (Ac-SYSMEHFRWGKPV-NH2) [α-MSH, native melanocyte stimulating hormone, comparator, reference compound] | 90 | – | – | –
Acetyl-Toac-Ser-Tyr-Ser-Met-Glu-His-Phe-Arg-Trp-Gly-Lys-Pro-Val-CONH2 [EPM-2] | 90 | fully maintaining the biological potency of the native α-MSH | full α-MSH agonist with equivalent potency | 100
